From patent KR20160024853A, “당뇨병 치료를 위한 주사형 나노-네트워크 겔” (메사추세츠 인스티튜트 오브 테크놀로지, priority 2013, dated 2016)

Legend:
[1] = tested on: STZ-induced diabetic mice (male C57B6); assay: Blood glucose control in STZ-induced diabetic mice after one subcutaneous injection; type: in vivo, mouse; details: after administration
[2] = Plasma human insulin in STZ-induced diabetic mice (human insulin ELISA); details: mouse, in vivo

Substance: 인슐린 용액: human recombinant insulin solution (zinc salt, Invitrogen)
- time when BG rose to the hyperglycemic range [1]: 둘째 날
- plasma insulin concentration on the day after administration [2]: 급격한 감소
